Tests used:
[1] = mice and rats after intraperitoneal (i.p.) application; Rivas et al., 2009; cited from earlier work
[2] = tested on: locomotor activity of mice; assay: spontaneous locomotor activity (activity cage); format: in vivo
Experimental: Locomotor activity: Spontaneous locomotor activity was tested using a commercially available microprocessor equipped activity cage (actiframe, Gerb Elektronik). Mice were placed in the activity cage 15 min before testing. Locomotor activity was measured for 1 h after intraperitoneal administration of vehicle, gabapentin or HZ166 during the early light phase of the day-night cycle.

[3] = tested on: rhesus monkeys; assay: conflict model of anxiolytic activity which also measures sedation; format: in vivo
Experimental: The data in FIGS. 21A-21F reflect the ability of the compounds or drugs to exert an anxioyic effect in rhesus monkeys (J. Rowlett, J. M. Cook et al., unpublished results) when given intravenously in propylene glycol/water solution. This is the conflict model of anxiolytic activity which also measures sedation. […] In FIG. 21B, SH-053-2′F (JY-XHE-053) is anxiolytic at a dose of greater than 0.13 mg/kg, but exerts only some slight sedation at doses greater than 1.2 mg/kg (responses decrease). In FIG. 21C it is clear the S-enantiomer of SH-053-2′F—S—CH3 is anxiolytic with no sedation up to 10-18 mg/kg, which is the highest dose tested.

[4] = tested on: Sciatic Ligation neuropathic pain; assay: T23 partial ligation of the sciatic nerve (mechanical allodynia); format: in vivo, rats; conditions: dose 35.5 (HZ-166), 18 (JY-XHE-053), 1 (XLI-JY-DMH) mg/kg; TPE 2 hr
Experimental: Neuropathic pain. The pro- or antinociceptive effects of the compounds of the present invention are analyzed in two manners. […] Sterile technique will be used throughout the surgery. The upper thigh will be shaved and wiped off with ethanol and betadine. A small incision will then be made in the skin. The underlying muscle of the upper thigh will be separated and the sciatic nerve exposed. The nerve is separated from the surrounding connective tissue and slightly elevated by a pair of fine, curved forceps. Approximately ⅓ to ½ of the nerve is tied off by passing a needle (7.0) and nylon suture through the nerve. The muscle and skin incision are closed off separately with 5.0 suture and the animals kept warm until they have recovered from the anesthesia. This procedure is routinely done on the right side (ipsilateral) while a sham surgery is performed on the left hind leg (contralateral). The latter involves a similar procedure with the exception that the sciatic nerve on this side is only exposed. The rats will be closely monitored daily for the development of infection or untoward effects of the surgery in which case the animals will be immediately euthanized
After an appropriate time for recovery (7 days) the animals will be tested for the development of mechanical allodynia (abnormal response to a non-noxious stimulus). The animals are each put in a bottomless plexiglass box placed on a wire mesh (¼″) platform. After 30-60 minutes in which to acclimate, a baseline mechanical sensitivity is determined. This procedure is done by applying a series of calibrated Von Frey fibres perpendicularly to the plantar surface of each hind paw and holding it there for about 6 secs with enough force to slightly bend the fibre. After a positive response (withdrawal of the foot) is noted a weaker fibre is applied. This is repeated until a 50% threshold for withdrawal can be determined
The allodynic threshold is then redetermined after intraperitoneal administration of an investigational AED. Testing will be conducted at the time-to-peak effect of the AED as determined in the acute seizure model.

[5] = tested on: neuropathic pain after CCI of the sciatic nerve; assay: chronic constriction injury (CCI) model, mechanical sensitization (von Frey filaments); format: in vivo, mice
Experimental: In addition, the pro- or antinociceptive effects of the compounds of the present invention are analyzed in the chronic constriction injury (CCI) model. The GABAA receptor subunit selective test compounds of the present invention are analysed in the CCI model in 7-8-week-old C57BL/6 mice. See Bennett, G. J. & Xie, Y. K. A peripheral mononeuropathy in rat that produces disorders of pain sensation like those seen in man. […] Seven to eight week old mice are anesthetized with isofluran. Unilateral constriction injury of the left sciatic nerve just proximal to the trifurcation is performed with three loose ligatures. In sham-operated animals the sciatic nerve is exposed and the connective tissue is freed, but no ligatures are applied. […] Heat hyperalgesia, cold allodynia and mechanical sensitization are assessed 7-9 days after surgery. Mechanical sensitivity is assessed with electronic von Frey filaments (IITC).
Pain studies—Neuropathic pain: HZ166 and gabapentin were analyzed in the chronic constriction injury (CCI) model. Unilateral constriction injury of the left sciatic nerve just proximal to the trifurcation was performed as described previously (Bennett and Xie, 1988). Anesthesia was induced and maintained by 2% isoflurane, combined with oxygen (30%). The sciatic nerve was exposed at the mid-thigh level proximal to the sciatic trifurcation by blunt dissection through the biceps femoris muscle. […] of nerve were freed of adhering tissue and three chromic gut ligatures (4/0) (Ethicon) were loosely put around the nerve with about 1 mm spacing. The ligatures were tied until they elicited a brief twitch in the hindlimb. The surgical wound was closed in layers. Heat hyperalgesia and mechanical sensitization were assessed 7-16 days after surgery.
Pain Studies—Mechanical sensitization: Mechanical sensitivity was assessed with dynamic von Frey filaments (IITC, Woodland Hills, Calif.). 4-5 measurements were made for each time point and animal and averaged. Measurements of paw withdrawal thresholds of the injured paw and of the contralateral paw were made alternately.
Statistical Analysis: For all different doses and vehicle, baseline paw withdrawal thresholds/latencies on day 7 after nerve ligation or on day 2 after zymosan A injection were subtracted from all later withdrawal thresholds and the area under the curve (AUC) was calculated. Drug effects were expressed as percent maximum possible effect (MPE) calculated from comparisons of paw withdrawal latencies or thresholds obtained prior to surgery or inflammation and before and after drug treatment. […] Unless otherwise indicated, statistical comparisons were made with one-way analysis of variance (ANOVA) followed by Scheffe's post hoc test. P values<0.05 were considered significant.

In the case of `C#Cc1ccc2c(c1)C(c1ccccn1)=NCc1c(C(=O)OCC)ncn1-2` [HZ-166, 8-Acetylenyl-6-pyridin-2-yl-4H-benzo[f]imidazo[1,5-a][1,4]diazepine-3-carboxylic acid ethyl ester], the pharmacokinetics [1] is listed as “suitable”, the “impairment of spontaneous motor activity” value ([2]; 16 and 48 mg/kg i.p.) is listed as “did not significantly impair” and the “doses that did not impair spontaneous locomotor activity” value ([2]; i.p.) is listed as at most 48 mg/kg. The sedation ([2]; mouse model of neuropathic pain study) was “not sedating”, the “no sedation up to dose” value ([3]; conflict model) was “up to 10 mg/kg” and the “sedative activity (conflict model)” value ([3]; intravenously) was “no sedative activity”. For the same compound, the “anxiolytic effect (conflict model)” value ([3]; intravenously in propylene glycol/water) was “anxiolytic”, the “Change (% of Control) ± SEM, T23 Sciatic Ligation” value [4] was 210 % of Control and the “Significance, T23 Sciatic Ligation” value [4] was “yes”. The “analgesia, mechanical sensitivity (von Frey) in CCI model” value ([5]; 48 mg/kg, 160 mg/kg and 480 mg/kg i.p.) was “significant analgesia”, the “AUC of mechanical PWT, HZ166 followed by vehicle” value ([5]; HZ166 16 mg/kg i.p., vehicle 45 min later, n=6) was 1.90 ± 0.29 g·h and the ED50 ([5]; Mus musculus, ip, 168 h, i.p., day 7 after CCI surgery, Hill fit, read-out: ED50, increase of ipsilateral PWT) was 3.83 ± 0.94 mg/kg. The “reversal of mechanical hypersensitivity” value ([5]; i.p., CCI model) was “dose-dependent reversal”, the “PWTs of the contralateral paw” value ([5]; i.p., day 7 after CCI surgery) was “not affected” and the “time of maximum effect on ipsilateral PWT after injection” value ([5]; i.p., day 7 after CCI surgery) was “about 1 h”. For the same compound, the “doses at which saturation of the antihyperalgesic effect was reached” value ([5]; i.p., mechanical PWT) was at least 160 mg/kg, the “doses with statistically significant antihyperalgesic effects” value ([5]; i.p., mechanical PWT) was at least 16 mg/kg and the “analgesic effects in the chronic constriction injury model of neuropathic pain” value ([5]; mouse, in vivo) was “analgesic effects”.

Source: patent USRE47475E1, “Selective agents for pain suppression” (WiSys Technology Foundation, Inc., priority 2002, dated 2019)
